Experimental data published in US20200354426A1 (MEDIMMUNE LIMITED, priority 2016, published 2020).
Values joined by “and” are separate entries in the source; they are usually repeats but may differ in a detail not shown here. Identical values can stand only once. Numbered stars: 1 amine (or outer) side, 2 acyl side, 3 side chain; on linkers, the order of the positions; unused ones are H or OH. Side chains are listed from the residue outwards. Peptide text beside a SMILES is read from it. * marks the point of attachment. γGlu = O=C(O)[C@H](CCC(=O)[*:2])N[*:1]; Palmitoyl = CCCCCCCCCCCCCCCC(=O)*

Columns and labels:
Assay in all cases: cAMP activity assay in assay medium (assay 1)
Assay type in all cases: cell-based
Human GLP1R = Human GLP1R (Homo sapiens, UniProt P43220); design: expressed in transfected cells; conditions: assay medium; Table 4; read-out: hGLP1R EC50
Sequence of Human GLP1R (P43220 24-463): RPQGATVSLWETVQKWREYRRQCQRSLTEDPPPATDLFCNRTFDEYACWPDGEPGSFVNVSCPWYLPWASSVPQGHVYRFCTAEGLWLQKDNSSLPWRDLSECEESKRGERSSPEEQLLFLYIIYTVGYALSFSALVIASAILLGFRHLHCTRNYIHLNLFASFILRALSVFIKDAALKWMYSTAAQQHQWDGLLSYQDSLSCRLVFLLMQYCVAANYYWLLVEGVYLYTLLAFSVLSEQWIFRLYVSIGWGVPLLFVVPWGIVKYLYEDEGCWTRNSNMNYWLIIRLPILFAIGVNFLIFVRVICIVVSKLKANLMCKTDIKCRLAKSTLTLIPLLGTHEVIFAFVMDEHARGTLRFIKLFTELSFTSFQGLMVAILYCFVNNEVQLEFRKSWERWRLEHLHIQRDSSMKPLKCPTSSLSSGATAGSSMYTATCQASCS
From the text: (§1) Biological Activity of Peptides in Cell-Based cAMP Activity Assay (Assay 1):
(§2) All sample dilutions were made in duplicate.

Human GIPr = biological target: T1, Human GIPr (Homo sapiens, UniProt P48546); conditions: assay medium; Table 4; read-out: hGIPR EC50
T1 construct: expressed in transfected cells
T1 sequence (P48546 22-466): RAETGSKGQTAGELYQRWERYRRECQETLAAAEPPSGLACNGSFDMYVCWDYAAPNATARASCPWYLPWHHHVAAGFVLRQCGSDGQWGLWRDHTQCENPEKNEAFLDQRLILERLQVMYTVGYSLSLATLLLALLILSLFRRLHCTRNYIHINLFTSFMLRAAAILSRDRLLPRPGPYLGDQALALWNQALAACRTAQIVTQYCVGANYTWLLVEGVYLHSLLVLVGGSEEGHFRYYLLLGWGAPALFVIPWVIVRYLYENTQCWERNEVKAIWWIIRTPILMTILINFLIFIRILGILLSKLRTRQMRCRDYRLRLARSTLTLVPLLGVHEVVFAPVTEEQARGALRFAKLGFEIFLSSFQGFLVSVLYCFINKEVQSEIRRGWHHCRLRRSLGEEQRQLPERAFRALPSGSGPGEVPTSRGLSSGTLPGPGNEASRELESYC
From the text: as §1, §2

Human GlucR = biological target: T2, Human GlucR (Homo sapiens, UniProt P47871); conditions: assay medium; Table 4; read-out: hGlucR EC50
T2 construct: expressed in transfected cells
T2 sequence (P47871 26-477): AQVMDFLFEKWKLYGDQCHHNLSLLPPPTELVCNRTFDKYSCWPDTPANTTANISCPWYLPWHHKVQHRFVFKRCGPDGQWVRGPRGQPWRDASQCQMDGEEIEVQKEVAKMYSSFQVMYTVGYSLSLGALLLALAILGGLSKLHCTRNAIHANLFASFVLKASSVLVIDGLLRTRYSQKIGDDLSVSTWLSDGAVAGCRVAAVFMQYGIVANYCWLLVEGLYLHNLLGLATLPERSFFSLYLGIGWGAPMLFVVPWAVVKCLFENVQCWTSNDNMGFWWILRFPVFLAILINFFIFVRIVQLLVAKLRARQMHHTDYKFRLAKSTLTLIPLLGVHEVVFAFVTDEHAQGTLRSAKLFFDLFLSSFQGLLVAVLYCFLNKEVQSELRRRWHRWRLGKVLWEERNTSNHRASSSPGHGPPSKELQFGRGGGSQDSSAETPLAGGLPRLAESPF
From the text: as §1, §2

Row | EC50 (Human GLP1R) [nM] | EC50 (Human GIPr) | EC50 (Human GlucR) | SMILES
1 | 0.175 | 298 nM | 0.723 nM | CCCCCCCCCCCCCCCC(=O)N[C@@H](CCC(=O)NCCCC[C@H](NC(=O)[C@H](CO)NC(=O)[C@H](CC(=O)O)NC(=O)[C@H](CC(C)C)NC(=O)[C@H](Cc1ccc(O)cc1)NC(=O)[C@H](CCCCN)NC(=O)[C@H](CO)NC(=O)[C@H](Cc1ccc(O)cc1)NC(=O)[C@H](CC(=O)O)NC(=O)[C@H](CO)NC(=O)[C@@H](NC(=O)[C@H](Cc1ccccc1)NC(=O)[C@@H](NC(=O)CNC(=O)[C@H](CCC(=O)O)NC(=O)[C@H](CO)NC(=O)[C@@H](N)Cc1c[nH]cn1)[C@@H](C)O)[C@@H](C)O)C(=O)N[C@@H](CCCNC(=N)N)C(=O)N[C@@H](C)C(=O)N[C@@H](CCC(N)=O)C(=O)N[C@@H](CC(=O)O)C(=O)N[C@@H](Cc1ccccc1)C(=O)N[C@H](C(=O)N[C@@H](CCC(N)=O)C(=O)N[C@@H](Cc1c[nH]c2ccccc12)C(=O)N[C@@H](CC(C)C)C(=O)N[C@@H](CCC(=O)O)C(=O)N[C@@H](C)C(=O)NCC(=O)NCC(N)=O)C(C)C)C(=O)O [g513] (H-HSEGTFTSDYSKYLDSK([γGlu-Palmitoyl])RAQDFVQWLEAGG-NH2; N-terminus assumed)
2 | 0.0398 | 74.1 nM | – | CCCCCCCCCCCCCCCC(=O)N[C@@H](CCC(=O)NCCCC[C@H](NC(=O)[C@H](Cc1ccc(O)cc1)NC(=O)[C@H](CCCCN)NC(=O)[C@H](CO)NC(=O)[C@H](Cc1ccc(O)cc1)NC(=O)[C@H](CC(=O)O)NC(=O)[C@H](CO)NC(=O)[C@@H](NC(=O)[C@H](Cc1ccccc1)NC(=O)[C@@H](NC(=O)CNC(=O)[C@H](CCC(N)=O)NC(=O)[C@H](CO)NC(=O)[C@@H](N)Cc1c[nH]cn1)[C@@H](C)O)[C@@H](C)O)C(=O)N[C@@H](CC(=O)O)C(=O)N[C@@H](CO)C(=O)N[C@@H](CCCNC(=N)N)C(=O)N[C@@H](CCCNC(=N)N)C(=O)N[C@@H](C)C(=O)N[C@@H](CCC(N)=O)C(=O)N[C@@H](CC(=O)O)C(=O)N[C@@H](Cc1ccccc1)C(=O)N[C@H](C(=O)N[C@@H](CCC(N)=O)C(=O)N[C@@H](Cc1c[nH]c2ccccc12)C(=O)N[C@@H](CC(C)C)C(=O)N[C@@H](CCC(=O)O)C(=O)N[C@@H](C)C(=O)NCC(=O)NCC(N)=O)C(C)C)C(=O)O [g601] (H-HSQGTFTSDYSKYK([γGlu-Palmitoyl])DSRRAQDFVQWLEAGG-NH2; N-terminus assumed)
3 | 0.012 | 64 nM | – | CCCCCCCCCCCCCCCC(=O)N[C@@H](CCC(=O)NCCCC[C@H](NC(=O)[C@H](Cc1ccc(O)cc1)NC(=O)[C@H](CCCCN)NC(=O)[C@H](CO)NC(=O)[C@H](Cc1ccc(O)cc1)NC(=O)[C@H](CC(=O)O)NC(=O)[C@H](CO)NC(=O)[C@@H](NC(=O)[C@H](Cc1ccccc1)NC(=O)[C@@H](NC(=O)CNC(=O)[C@H](CCC(N)=O)NC(=O)[C@H](CO)NC(=O)[C@@H](N)Cc1c[nH]cn1)[C@@H](C)O)[C@@H](C)O)C(=O)N[C@@H](CC(=O)O)C(=O)N[C@@H](CO)C(=O)N[C@@H](CCCNC(=N)N)C(=O)N[C@@H](CCCNC(=N)N)C(=O)N[C@@H](C)C(=O)N[C@@H](CCCNC(=N)N)C(=O)N[C@@H](CC(=O)O)C(=O)N[C@@H](Cc1ccccc1)C(=O)N[C@H](C(=O)N[C@@H](C)C(=O)N[C@@H](Cc1c[nH]c2ccccc12)C(=O)N[C@@H](CC(C)C)C(=O)N[C@@H](CCC(=O)O)C(=O)N[C@@H](C)C(=O)NCC(=O)NCC(N)=O)C(C)C)C(=O)O [g780] (H-HSQGTFTSDYSKYK([γGlu-Palmitoyl])DSRRARDFVAWLEAGG-NH2; N-terminus assumed)
4 | 0.00907 | 1.51 nM | – | CCCCCCCCCCCCCCCC(=O)N[C@@H](CCC(=O)NCCCC[C@H](NC(=O)[C@H](CC(=O)O)NC(=O)[C@H](CO)NC(=O)[C@@H](NC(=O)[C@H](Cc1ccccc1)NC(=O)[C@@H](NC(=O)CNC(=O)[C@H](CCC(N)=O)NC(=O)[C@H](CO)NC(=O)[C@@H](N)Cc1c[nH]cn1)[C@@H](C)O)[C@@H](C)O)C(=O)N[C@@H](CO)C(=O)N[C@@H](CCCCN)C(=O)N[C@@H](Cc1ccc(O)cc1)C(=O)N[C@@H](CC(C)C)C(=O)N[C@@H](CC(=O)O)C(=O)N[C@@H](CO)C(=O)N[C@@H](CCC(=O)O)C(=O)N[C@@H](CCCNC(=N)N)C(=O)N[C@@H](C)C(=O)N[C@@H](CCCNC(=N)N)C(=O)N[C@@H](CC(=O)O)C(=O)N[C@@H](Cc1ccccc1)C(=O)N[C@H](C(=O)N[C@@H](C)C(=O)N[C@@H](Cc1c[nH]c2ccccc12)C(=O)N[C@@H](CC(C)C)C(=O)N[C@@H](CCC(=O)O)C(=O)N[C@@H](C)C(=O)NCC(=O)NCC(N)=O)C(C)C)C(=O)O [g798] (H-HSQGTFTSDK([γGlu-Palmitoyl])SKYLDSERARDFVAWLEAGG-NH2; N-terminus assumed)
5 | – | 113 nM and 112 nM | 0.0962 nM and 0.0698 nM | CCCCCCCCCCCCCCCC(=O)N[C@@H](CCC(=O)NCCCC[C@H](NC(=O)[C@H](CO)NC(=O)[C@H](CC(=O)O)NC(=O)[C@H](CC(C)C)NC(=O)[C@H](Cc1ccc(O)cc1)NC(=O)[C@H](CCCCN)NC(=O)[C@H](CO)NC(=O)[C@H](Cc1ccc(O)cc1)NC(=O)[C@H](CC(=O)O)NC(=O)[C@H](CO)NC(=O)[C@@H](NC(=O)[C@H](Cc1ccccc1)NC(=O)[C@@H](NC(=O)CNC(=O)[C@H](CCC(N)=O)NC(=O)[C@H](CO)NC(=O)[C@@H](N)Cc1c[nH]cn1)[C@@H](C)O)[C@@H](C)O)C(=O)N[C@@H](CCCNC(=N)N)C(=O)N[C@@H](C)C(=O)N[C@@H](CCC(=O)O)C(=O)N[C@@H](CC(=O)O)C(=O)N[C@@H](Cc1ccccc1)C(=O)N[C@H](C(=O)N[C@@H](CCC(N)=O)C(=O)N[C@@H](Cc1c[nH]c2ccccc12)C(=O)N[C@@H](CC(C)C)C(=O)N[C@H](C(=O)N[C@@H](C)C(=O)NCC(=O)NCC(N)=O)C(C)C)C(C)C)C(=O)O [g599]
6 | 0.00942 | 2.77 nM | – | CCCCCCCCCCCCCCCC(=O)N[C@@H](CCC(=O)NCCCC[C@H](NC(=O)[C@H](CC(=O)O)NC(=O)[C@H](CO)NC(=O)[C@@H](NC(=O)[C@H](Cc1ccccc1)NC(=O)[C@@H](NC(=O)CNC(=O)[C@H](CCC(N)=O)NC(=O)[C@H](CO)NC(=O)[C@@H](N)Cc1c[nH]cn1)[C@@H](C)O)[C@@H](C)O)C(=O)N[C@@H](CO)C(=O)N[C@@H](CCCNC(=N)N)C(=O)N[C@@H](Cc1ccc(O)cc1)C(=O)N[C@@H](CC(C)C)C(=O)N[C@@H](CC(=O)O)C(=O)N[C@@H](CO)C(=O)N[C@@H](CCC(=O)O)C(=O)N[C@@H](CCCNC(=N)N)C(=O)N[C@@H](C)C(=O)N[C@@H](CCCNC(=N)N)C(=O)N[C@@H](CC(=O)O)C(=O)N[C@@H](Cc1ccccc1)C(=O)N[C@H](C(=O)N[C@@H](C)C(=O)N[C@@H](Cc1c[nH]c2ccccc12)C(=O)N[C@@H](CC(C)C)C(=O)N[C@@H](CCC(=O)O)C(=O)N[C@@H](C)C(=O)NCC(=O)NCC(N)=O)C(C)C)C(=O)O [g848] (H-HSQGTFTSDK([γGlu-Palmitoyl])SRYLDSERARDFVAWLEAGG-NH2; N-terminus assumed)
